Reference: patent US20240246941A1, “SUBSTITUTED 4-(3-AMINOPROP-1-YL)AMINOQUINOLINE ANALOGS AS MODULATORS OF MELANOMA-ASSOCIATED ANTIGEN 11 UBIQUITIN LIGASE” (ST. JUDE CHILDREN'S RESEARCH HOSPITAL, INC., priority 2020, published 2024)

Molecular target: MAGE-A11:PCF11 (Homo sapiens (Human), UniProt P43364)
Test: TR-FRET single point screening at 15 μM
Assay type: binding
Parameters: unit not given here
Method in brief: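 Competition TR-FRET: compounds at final 15 μM mixed with 200 nM FAM-PCF11_4, 5 nM GST-MAGEA11 and 5 nM Tb-anti-GST in Tris pH 7.5/MgCl2/BSA/DTT buffer, room temperature, 90 min. Emission ratio 520/490 nm (340 nm excitation) expressed as % inhibition relative to positive and negative controls.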

[1] = single point TR-FRET screening of quinoline compounds against MAGE-A11:PCF11, 15 μM
[2] = single point TR-FRET screening at 15 μM against MAGE-A11:PCF11

Sequence of MAGE-A11:PCF11 (P43364 218-429): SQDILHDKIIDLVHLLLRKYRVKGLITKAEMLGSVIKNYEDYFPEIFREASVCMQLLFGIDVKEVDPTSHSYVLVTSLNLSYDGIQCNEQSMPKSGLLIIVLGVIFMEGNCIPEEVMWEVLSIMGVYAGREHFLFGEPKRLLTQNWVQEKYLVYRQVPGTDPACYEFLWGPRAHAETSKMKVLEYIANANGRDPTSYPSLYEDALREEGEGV

SMILES | TR-FRET signal [1] | TR-FRET signal [2]
CCCN(CCCNc1ccnc2cc(Cl)ccc12)Cc1cc(OC(F)(F)F)ccc1OC [SJ000523011] | 15.67 | 
CCCN(CCCNc1ccnc2cc(Cl)ccc12)Cc1cc(C(F)(F)F)ccc1OC [SJ000523012] | 30.4 | 
CCCN(CCCNc1ccnc2cc(Cl)ccc12)Cc1cccc(C(F)(F)F)c1 [SJ000523013] | 17.48 | 
CCCN(CCCNc1ccnc2cc(Cl)ccc12)Cc1cccn1C [SJ000523014] | 22.71 | 
CCCN(CCCNc1ccnc2cc(Cl)ccc12)CC1CCOC1 (centres unmarked) [SJ000523016] | 9.664 | 
CCCN(CCCCCC(=O)OC)CCCNc1ccnc2cc(Cl)ccc12 [SJ000523017] | 14.3 | 
CCCN(CCCNc1c2ccc(Cl)cc2nc2ccc(OC)cc12)Cc1ccc(C(=O)OC)cc1 [SJ000523018] |  | −118.6
CCCN(CCCNc1c2ccc(Cl)cc2nc2ccc(OC)cc12)Cc1ccc(-c2ccccc2[N+](=O)[O-])o1 [SJ000523019] |  | −102.8
CCCN(CCCNc1c2ccc(Cl)cc2nc2ccc(OC)cc12)Cc1ccc(-c2cccc(Cl)c2)o1 [SJ000523020] |  | −169.7
CCCN(CCCNc1c2ccc(Cl)cc2nc2ccc(OC)cc12)Cc1c(Cl)ccc(Cl)c1Cl [SJ000523021] | 40 | 
CCCN(CCCNc1c2ccc(Cl)cc2nc2ccc(OC)cc12)Cc1ccc([N+](=O)[O-])o1 [SJ000523022] |  | −329.7
COc1ccc2nc3cc(Cl)ccc3c(NCCCNCc3ccncc3)c2c1 [SJ000523023] |  | −127.6
COc1ccc2nc3cc(Cl)ccc3c(NCCCNCc3ccccn3)c2c1 [SJ000523024] |  | −255.3
COc1ccc2nc3cc(Cl)ccc3c(NCCCNCCCSC)c2c1 [SJ000523025] |  | −336.9
COc1ccc2nc3cc(Cl)ccc3c(NCCCNCc3ccsc3)c2c1 [SJ000523026] |  | −353.8
COc1ccc2nc3cc(Cl)ccc3c(NCCCNCCC(C)c3ccccc3)c2c1 (centres unmarked) [SJ000523027] |  | −340.3

SMILES | TR-FRET signal [1] | TR-FRET signal [2]
COc1ccc2nc3cc(Cl)ccc3c(NCCCNCc3ccc(N(C)C)c4ccccc34)c2c1 [SJ000523028] | −1.532 | 
COc1ccc2nc3cc(Cl)ccc3c(NCCCNCc3ccc(C)s3)c2c1 [SJ000523029] |  | −304.8
COc1ccc2nc3cc(Cl)ccc3c(NCCCNCc3ccc(Br)o3)c2c1 [SJ000523030] |  | −219.4
COc1ccc2nc3cc(Cl)ccc3c(NCCCNCc3ccccc3N)c2c1 [SJ000523031] | −57.15 | 
COc1ccc2nc3cc(Cl)ccc3c(NCCCNCc3ccco3)c2c1 [SJ000523032] |  | −165.3
COc1ccc(CNCCCNc2c3ccc(Cl)cc3nc3ccc(OC)cc23)cc1 [SJ000523033] |  | −338.9
COc1ccc2nc3cc(Cl)ccc3c(NCCCNCc3ccccc3F)c2c1 [SJ000523034] |  | −353.8
COc1ccc2nc3cc(Cl)ccc3c(NCCCNCc3ccc(F)cc3)c2c1 [SJ000523035] |  | −398.2
COc1ccc2nc3cc(Cl)ccc3c(NCCCNCc3ccc(Cl)c([N+](=O)[O-])c3)c2c1 [SJ000523036] |  | −95.38
COc1ccc2nc3cc(Cl)ccc3c(NCCCNCc3cccc(C#N)c3)c2c1 [SJ000523037] |  | −333.2
COc1ccc2nc3cc(Cl)ccc3c(NCCCNCc3ccc4ccccc4c3)c2c1 [SJ000523038] |  | −109.5
CCCN(CCCNc1ccnc2cc(Cl)ccc12)Cc1ccc(-c2ccccc2)cc1 [SJ000523039] | 30.23 | 
CCCN(CCCNc1ccnc2cc(Cl)ccc12)Cc1ccc2ccccc2c1 [SJ000523040] | 32.85 | 
CCCN(CCCNc1ccnc2cc(Cl)ccc12)Cc1cccc(C)c1 [SJ000523041] | 28.55 | 
CCCN(CCCNc1ccnc2cc(Cl)ccc12)Cc1ccc(C(=O)OC)cc1 [SJ000523042] | 16.72 | 
CCCN(CCCNc1ccnc2cc(Cl)ccc12)Cc1ccc(Cl)cc1Cl [SJ000523043] | 12.1 | 
